Measured values: ChEMBL document CHEMBL1136065, “The synthesis and structure-activity relationships of 1,3-diaryl 1,2,4-(4H)-triazol-5-ones: a new class of calcium-dependent, large conductance, potassium (maxi-K) channel opener targeted for urge urinary incontinence” (Bioorg Med Chem Lett, 2002)

Key:
[1] = molecular target: Calcium-activated potassium channel subunit alpha-1 KCNMA1 (Mus musculus) (UniProt Q08460); experiment: Compound was tested for its effect on maxi-K-mediated outward current in Xenopus laevis oocytes expressing the cloned maxi-K channel mslo at a concentration of 20 uM; details: oocyte
Sequence of Calcium-activated potassium channel subunit alpha-1 KCNMA1 (Mus musculus) (Q08460 whole entry, looked up): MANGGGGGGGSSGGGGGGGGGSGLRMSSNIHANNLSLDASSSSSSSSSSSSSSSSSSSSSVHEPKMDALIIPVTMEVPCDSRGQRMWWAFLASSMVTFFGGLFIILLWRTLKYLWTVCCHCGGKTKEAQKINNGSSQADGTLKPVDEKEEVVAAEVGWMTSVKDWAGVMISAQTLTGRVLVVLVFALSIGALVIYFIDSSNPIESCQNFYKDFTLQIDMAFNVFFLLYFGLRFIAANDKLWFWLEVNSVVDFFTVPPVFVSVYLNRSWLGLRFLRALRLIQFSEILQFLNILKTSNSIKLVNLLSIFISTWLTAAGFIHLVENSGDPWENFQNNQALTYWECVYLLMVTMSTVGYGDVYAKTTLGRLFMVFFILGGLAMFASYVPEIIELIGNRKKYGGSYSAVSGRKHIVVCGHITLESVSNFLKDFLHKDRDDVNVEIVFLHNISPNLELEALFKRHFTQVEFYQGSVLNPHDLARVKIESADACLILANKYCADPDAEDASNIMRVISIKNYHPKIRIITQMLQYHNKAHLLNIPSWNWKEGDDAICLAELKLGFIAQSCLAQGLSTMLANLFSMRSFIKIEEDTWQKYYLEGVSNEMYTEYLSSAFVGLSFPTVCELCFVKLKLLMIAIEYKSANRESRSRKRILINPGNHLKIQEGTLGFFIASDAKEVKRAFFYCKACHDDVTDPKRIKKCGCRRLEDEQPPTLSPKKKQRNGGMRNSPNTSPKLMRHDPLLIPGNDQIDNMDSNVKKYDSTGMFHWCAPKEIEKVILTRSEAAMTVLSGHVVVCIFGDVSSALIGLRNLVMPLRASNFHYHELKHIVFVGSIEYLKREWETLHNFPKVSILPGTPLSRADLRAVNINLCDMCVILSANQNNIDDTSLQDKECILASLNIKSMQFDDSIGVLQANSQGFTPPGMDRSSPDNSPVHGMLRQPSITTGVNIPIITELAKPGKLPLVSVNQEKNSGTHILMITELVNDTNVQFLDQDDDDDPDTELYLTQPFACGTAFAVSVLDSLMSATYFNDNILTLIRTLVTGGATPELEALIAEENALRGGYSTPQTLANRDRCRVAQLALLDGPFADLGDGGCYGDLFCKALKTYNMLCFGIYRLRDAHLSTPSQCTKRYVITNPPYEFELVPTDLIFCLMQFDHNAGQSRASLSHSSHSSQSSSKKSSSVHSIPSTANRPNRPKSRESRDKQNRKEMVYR

Rattus norvegicus [2] = species on record: Rattus norvegicus; experiment: Compound was tested for percentage inhibition of isometric force in response to a test compound in isolated rat bladder strips pre-contracted with carbachol at a concentration of 3 uM; format: functional
Rattus norvegicus [3] = species on record: Rattus norvegicus; experiment: Compound was tested for percentage inhibition of isometric force in response to a test compound in isolated rat bladder strips pre-contracted with carbachol at a concentration of 20 uM; format: functional
[4] = molecular target: Calcium-activated potassium channel subunit alpha-1 KCNMA1 (Mus musculus) (UniProt Q08460); experiment: Compound was tested for its effect on maxi-K-mediated outward current in Xenopus laevis oocytes expressing the cloned maxi-K channel mslo at a concentration of 10 uM; details: oocyte
[5] = molecular target: Calcium-activated potassium channel subunit alpha-1 KCNMA1 (Homo sapiens) (UniProt Q12791); experiment: Compound was tested for its effect on maxi-K-mediated outward current in Xenopus laevis oocytes expressing the cloned maxi-K channel hslo at a concentration of 1 uM; details: oocyte
Sequence of Calcium-activated potassium channel subunit alpha-1 KCNMA1 (Homo sapiens) (Q12791 whole entry, looked up): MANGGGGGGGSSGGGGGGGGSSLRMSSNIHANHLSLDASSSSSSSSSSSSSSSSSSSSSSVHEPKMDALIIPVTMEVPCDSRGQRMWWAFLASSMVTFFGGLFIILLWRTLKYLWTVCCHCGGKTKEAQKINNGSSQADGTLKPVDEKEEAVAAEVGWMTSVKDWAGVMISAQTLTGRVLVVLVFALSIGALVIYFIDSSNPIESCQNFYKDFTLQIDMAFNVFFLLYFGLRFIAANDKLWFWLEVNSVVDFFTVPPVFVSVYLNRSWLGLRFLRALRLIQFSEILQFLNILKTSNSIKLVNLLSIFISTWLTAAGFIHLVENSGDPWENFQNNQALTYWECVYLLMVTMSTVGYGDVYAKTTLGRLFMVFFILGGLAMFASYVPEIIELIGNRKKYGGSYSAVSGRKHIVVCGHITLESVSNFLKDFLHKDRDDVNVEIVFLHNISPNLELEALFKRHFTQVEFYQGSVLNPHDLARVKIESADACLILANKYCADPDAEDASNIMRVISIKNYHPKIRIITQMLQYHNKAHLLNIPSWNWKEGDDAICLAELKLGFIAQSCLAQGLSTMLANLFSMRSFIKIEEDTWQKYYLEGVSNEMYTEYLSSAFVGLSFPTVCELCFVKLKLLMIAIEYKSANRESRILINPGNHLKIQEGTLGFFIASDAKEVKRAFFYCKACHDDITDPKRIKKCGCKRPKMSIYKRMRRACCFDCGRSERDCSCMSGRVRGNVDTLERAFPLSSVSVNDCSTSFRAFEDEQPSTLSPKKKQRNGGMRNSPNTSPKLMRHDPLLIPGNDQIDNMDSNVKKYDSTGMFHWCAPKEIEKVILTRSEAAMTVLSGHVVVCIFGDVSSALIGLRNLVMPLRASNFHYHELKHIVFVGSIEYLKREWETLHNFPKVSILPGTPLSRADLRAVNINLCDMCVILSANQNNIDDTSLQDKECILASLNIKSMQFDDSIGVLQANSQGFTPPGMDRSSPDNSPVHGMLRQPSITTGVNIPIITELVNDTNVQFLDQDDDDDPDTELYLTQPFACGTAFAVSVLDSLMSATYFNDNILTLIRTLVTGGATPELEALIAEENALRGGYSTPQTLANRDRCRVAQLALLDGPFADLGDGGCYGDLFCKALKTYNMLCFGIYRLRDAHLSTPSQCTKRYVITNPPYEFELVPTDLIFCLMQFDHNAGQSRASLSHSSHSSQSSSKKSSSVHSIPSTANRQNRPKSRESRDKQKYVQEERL

Structure (SMILES) | Increase [1] | inhibition at 3 µM (Rattus norvegicus [2]) | inhibition at 20 µM (Rattus norvegicus [3]) | Increase [4] | Increase [5]
Oc1ccc(Cl)cc1-n1nc(-c2ccc(C(F)(F)F)c(Cl)c2)nc1O | 198.5% | 5% | – | – | –
Oc1ccc(Cl)cc1-n1nc(-c2cc(C(F)(F)F)cc(C(F)(F)F)c2)nc1O | 154.2% | 15% | – | – | –
O=c1[nH]c(-c2ccc(C(F)(F)F)cc2)nn1-c1cc(Cl)ccc1O | 196.8% | 22% | 87% | – | –
O=c1[nH]c2cc(C(F)(F)F)ccc2n1-c1cc(Cl)ccc1O | 131.8% | – | 8% | – | –
Oc1ccc(Cl)cc1-n1nc(-c2cccc(C(F)(F)F)c2)nc1O | – | 42% | – | 161.5% | –
Oc1ccc(Cl)cc1-n1nc(-c2ccccc2C(F)(F)F)nc1O | 117.1% | 34% | 90% | – | –
Oc1ccc(Cl)cc1-n1nc(-c2ccccc2)nc1O | – | 35% | 89.4% | – | 91.4%
Oc1ccc(Cl)cc1-n1nc(-c2ccc(C(F)(F)F)cc2C(F)(F)F)nc1O | 175.5% | 46% | 94% | – | –
